In US9532984B2, “Therapeutic combination for cancer treatment” (The Translational Genomics Research Institute, priority 2011, dated 2017):

Columns and labels:
SW48 KRas Kras WT cells = assay: Cancer cell growth inhibition (cell proliferation), SW48 Kras WT; assay type: cell-based; settings: Homo sapiens
Protocol: (§1) The experiments involved a broad testing of multiple concentrations of metformin, phenformin and pioglitazone against fixed concentrations of the autophagy inhibitors. […] Similar tests were carried out in mouse models.

[1] = test system: SW48 KRas Kras G12V cells; assay: Cancer cell growth inhibition (cell proliferation), SW48 Kras G12V; assay type: cell-based; settings: Homo sapiens
Protocol: as §1

[2] = test system: SW48 KRas Kras G12D cells; assay: Cancer cell growth inhibition (cell proliferation), SW48 Kras G12D; assay type: cell-based; settings: Homo sapiens
Protocol: as §1

[3] = test system: BxPC-3 human pancreatic tumor xenograft
Protocol: BxPC-3 is a human pancreatic cancer cells obtained from the American Type Culture Collection and maintained as recommended. Female mice were inoculated subcutaneously in the right flank with 0.1 ml of a 50% RPMI/50% Matrigel™ (BD Biosciences, Bedford, Mass.) mixture containing a suspension of BxPC-3 human pancreatic tumor cells (approximately 5×10^6 cells/mouse). RPMI, a bicarbonate buffering system, and Matrigel™, a gelatinous protein mixture, support growth of many types of cultured cells including human normal and neoplastic leukocytes.
When tumors reached approximately 135 mg, mice were randomized into treatment groups. Body weights were recorded when the mice were randomized into groups and were weighted twice per week (on Study Days 3 and 7 for each cycle) thereafter in conjunction with tumor measurements. Group 1 mice were treated with vehicle control containing 5% DMA, 10% propylene glycol, 20% PEG 400, and 65% sterile water. Group 2 mice were treated with metformin only. Group 3 mice were treated with autophagy inhibitor in combination with metformin. Treatment began on the day of randomization. Metformin was delivered orally ad libitum in water. The autophagy inhibitor was delivered daily for 12 days in a vehicle of 5% DMA, 10% propylene glycol, 20% PEG 400, and 65% sterile water.

Row | IC50 (SW48 KRas Kras WT cells; no autophagy inhibitor) [µM] | IC50 (SW48 KRas Kras WT cells; with fixed Mefloquine 1 μM) [µM] | IC50 (SW48 KRas Kras WT cells; with fixed Mefloquine 3 μM) [µM] | IC50 (SW48 KRas Kras WT cells; with fixed Quinicrine 1 μM) [µM] | IC50 (SW48 KRas Kras WT cells; with fixed Quinicrine 3 μM) [µM] | IC50 ([1]; no autophagy inhibitor) [µM] | IC50 ([1]; with fixed Mefloquine 1 μM) [µM] | IC50 ([1]; with fixed Mefloquine 3 μM) [µM] | IC50 ([1]; with fixed Quinicrine 1 μM) [µM] | IC50 ([1]; with fixed Quinicrine 3 μM) [µM] | IC50 ([2]; no autophagy inhibitor) [µM] | IC50 ([2]; with fixed Mefloquine 1 μM) [µM] | IC50 ([2]; with fixed Mefloquine 3 μM) [µM] | IC50 ([2]; with fixed Quinicrine 1 μM) [µM] | IC50 ([2]; with fixed Quinicrine 3 μM) [µM] | SMILES | further results
1 | 1000 | < 20 | 600 | 1100 | 4800 | 430 | < 20 | 40 | < 20 | 500 | 1300 | < 20 | 900 | 1100 | > 10000 | CN(C)C(=N)N=C(N)N [Metformin, metformin] | IC50 (SW48 KRas Kras WT cells; with fixed Primaquine 1 μM): 100 µM; IC50 (SW48 KRas Kras WT cells; with fixed Primaquine 3 μM): 2600 µM; IC50 ([1]; with fixed Primaquine 1 μM): 80 µM; IC50 ([1]; with fixed Primaquine 3 μM): 320 µM; IC50 ([2]; with fixed Primaquine 1 μM): 100 µM; IC50 ([2]; with fixed Primaquine 3 μM): > 10000 µM; tumor growth ([3]; after day 18, FIG. 1): continued although at a lower rate than that in Group 1 control; tumor growth rate ([3]; day 8 to about day 18, compared among groups, FIG. 1): lowest tumor growth rate; tumor size regressed ([3]; within about one week, after day 18): ~20 % by weight
2 | 7.2 | 17.2 |  | 11 | 15.8 | 16.2 | 1.8 |  | 6.5 | 4.3 | 10.7 | 13 |  | 23.4 | 33.1 | [H]/N=C(/N)N/C(=N/[H])NCCc1ccccc1 [Phenformin, phenformin] | IC50 (SW48 KRas Kras WT cells; with fixed Chloroquine 1 μM): 23.4 µM; IC50 (SW48 KRas Kras WT cells; with fixed Chloroquine 3 μM): 11.7 µM; IC50 ([1]; with fixed Chloroquine 1 μM): 5.8 µM; IC50 ([1]; with fixed Chloroquine 3 μM): 4.5 µM; IC50 ([2]; with fixed Chloroquine 1 μM): 19.5 µM; IC50 ([2]; with fixed Chloroquine 3 μM): 16.2 µM
3 | 154 |  | 8.1 |  |  | > 250 |  | 0.4 |  |  | 183 |  | 9.7 |  |  | CCc1ccc(CCOc2ccc(CC3SC(=O)NC3=O)cc2)nc1 (stereo not drawn) [Pioglitizone, pioglitazone] | 
